Like-named read-outs stand apart in the source and are kept apart here. Values belong to the compound of their own block, whether it stands above or below them.
Molecular target: hemoglobin in stool samples (Homo sapiens, UniProt P68871+P69905)
Experiment: Accelerated shipping simulation (35C 16 hour challenge), hemoglobin % recovery by ELISA;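 note: stool hemoglobin measured by ELISA before and after thermal-cycler shipping stress, stability given as percent of pre-stress hemoglobin recovered afterwards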
Parameters: from tissue; host or cells: stool samples

hemoglobin in stool samples, sequence (P69905 2-142 limits assumed): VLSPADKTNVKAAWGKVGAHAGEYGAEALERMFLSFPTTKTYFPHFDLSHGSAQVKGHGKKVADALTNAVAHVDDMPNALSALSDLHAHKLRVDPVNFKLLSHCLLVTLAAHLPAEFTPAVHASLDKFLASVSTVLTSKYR
hemoglobin in stool samples, sequence (P68871 2-147 limits assumed): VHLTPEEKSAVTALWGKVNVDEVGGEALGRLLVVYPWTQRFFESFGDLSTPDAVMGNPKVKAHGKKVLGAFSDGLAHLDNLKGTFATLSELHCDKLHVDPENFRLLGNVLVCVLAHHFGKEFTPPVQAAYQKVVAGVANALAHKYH

Results (additive concentration 10 uM): No Improvement
Results (additive concentration 100 uM): No Improvement
Results (additive concentration 1 mM): No Improvement
Results (additive concentration 10 mM): No Improvement
Structure (SMILES): O=C(O)CC(NCCNC(CC(=O)O)C(=O)O)C(=O)O (stereo not shown)

Results (Additive Concentration 0.1 uM): No Improvement
Results (Additive Concentration 1 uM): No Improvement
Results (additive concentration 5 uM): No Improvement
Results (additive concentration 0.01 mM): No Improvement
Results (additive concentration 0.1 mM): No Improvement
Results (additive concentration 1 mM): No Improvement
Results (additive concentration 10 mM): No Improvement
Structure (SMILES): O=C([O-])CC[C@@H](C(=O)[O-])N(CC(=O)[O-])CC(=O)[O-].[Na+].[Na+].[Na+].[Na+]

Results (additive concentration 0.1 mM): No Improvement
Results (additive concentration 1 mM): No Improvement
Results (additive concentration 10 mM): No Improvement
Structure (SMILES): CC(C(=O)[O-])N(CC(=O)[O-])CC(=O)[O-].O.[Na+].[Na+].[Na+] (stereo not shown)

Results (additive concentration […]): No Improvement
Structure (SMILES): O=C(O)CCCCC1CCSS1 (racemic) [(±)-α-Lipoic acid]

Results (Additive Concentration 1 uM): No Improvement
Results (additive concentration 10 uM): No Improvement
Results (additive concentration 0.1 mM): No Improvement
Results (additive concentration 1 mM): No Improvement
Structure (SMILES): O[C@H](CS)[C@H](O)CS (racemic) [Dithiothreitol]

Structure (SMILES): C=CCn1cc[n+](C)c1.[Cl-] [1-Allyl-3-methylimidazolium Chloride]
Results (additive concentration 0.01 mM): No Improvement
Results (additive concentration 0.1 mM): No Improvement
Results (additive concentration 1 mM): No Improvement

Results (additive concentration 0.01 mM): No Improvement
Results (additive concentration 0.1 mM): No Improvement
Results (additive concentration 1 mM): No Improvement
Structure (SMILES): CCCCn1cc[n+](C)c1.[Cl-] [1-Butyl-3-methylimidazoium Chloride]

Structure (SMILES): O.O=c1cc(-c2ccccc2)oc2c(O)c(O)ccc12 [7,8 dihydroxyflavone hydrate]
Results (additive concentration 0.01 mM): No Improvement
Results (additive concentration 0.1 mM): No improvement
Results (additive concentration 1 mM): No Improvement

Structure (SMILES): O=P(O)(O)CN(CP(=O)(O)O)CP(=O)(O)O [ATMP]
Results (additive concentration 0.02 mM): No Improvement
Results (additive concentration 0.2 mM): No Improvement
Results (additive concentration 2 mM): No Improvement

Results (additive concentration 0.00003%): No Improvement
Results (additive concentration 0.00030%): No Improvement
Results (additive concentration 0.00300%): No Improvement
Results (additive concentration 0.03000%): No Improvement
Structure (SMILES): C=CC1=C(C)/C(=C/C2=NC(=C\c3[nH]c(/C=C4\NC(=O)C(C)=C4C=C)c(C)c3CCC(=O)O)/C(CCC(=O)O)=C2C)NC1=O [Biliverdin]

Results (additive concentration 5 uM): No Improvement
Results (additive concentration 10 uM): No Improvement
Results (additive concentration 100 uM): No Improvement
Structure (SMILES): O=C(/C=C/C(=O)Oc1c(Br)cc(Br)cc1C(=O)O)Oc1c(Br)cc(Br)cc1C(=O)O [Bis(3,5-dibromosalilcyl)fumarate]

Results (Additive Concentration 0.1 uM): No Improvement
Results (Additive Concentration 1 uM): No Improvement
Results (additive concentration 5 uM): No Improvement
Results (additive concentration 0.01 mM): No Improvement
Results (additive concentration 0.1 mM): No Improvement
Results (additive concentration 1 mM): No Improvement
Results (additive concentration 10 mM): No Improvement
Structure (SMILES): N[C@@H](CS)C(=O)O [Cysteine]

Structure (SMILES): O=c1c(-c2ccc(O)cc2)coc2cc(O)ccc12 [Daidzein]
Results (additive concentration 0.01 mM): No Improvement
Results (additive concentration 0.1 mM): No Improvement
Results (additive concentration 1 mM): No Improvement

Results (additive concentration 0.0005 mM): No Improvement
Results (additive concentration 0.5 uM): No Improvement
Results (additive concentration 0.002 mM): No Improvement
Results (additive concentration 5 uM): No Improvement
Results (additive concentration 50 uM): No Improvement
Results (additive concentration 1 mM): No Improvement
Structure (SMILES): O=C(O)[C@@H](COP(=O)(O)O)OP(=O)(O)O [Diphosphoglycerate (DPG)]

Results (additive concentration 5 mM): No Improvement
Results (additive concentration 10 mM): No Improvement
Results (additive concentration 30 mM): No Improvement
Structure (SMILES): O=C([O-])CN(CCN(CC(=O)[O-])CC(=O)O)CC(=O)O.[Na+].[Na+] [EDTA: Disodium Salt]

Results (additive concentration 0.718 mM): No Improvement
Results (additive concentration 5 mM): No Improvement
Structure (SMILES): CC1=NCC[C@@H](C(=O)O)N1 [Ectoine]

Results (additive concentration 72 uM): No Improvement
Results (additive concentration 720 uM): No Improvement
Structure (SMILES): OC[C@H]1OC(O)[C@H](O)[C@@H](O)[C@@H]1O (stereo partly shown) [Glucose]

Results (additive concentration 10 uM): No Improvement
Results (additive concentration 100 uM): No Improvement
Results (additive concentration 1 mM): No Improvement
Results (additive concentration 3 mM): No Improvement
Structure (SMILES): N[C@@H](CCC(=O)N[C@@H](CS)C(=O)NCC(=O)O)C(=O)O [Glutathione]

Structure (SMILES): NCC(=O)O [Glycine (no sample)]
Results: No improvement

Results (additive concentration 6 uM): Improvement in % Hb
Structure (SMILES): C=CC1=C(C)c2cc3[n-]c(cc4[n-]c(cc5nc(cc1n2)C(C)=C5C=C)c(C)c4CCC(=O)O)c(CCC(=O)O)c3C.O.[Fe+2] [Hematin]

Results (additive concentration 0.0003%): Improvement in % Hb
Structure (SMILES): C=CC1=C(C)c2cc3[n-]c(cc4[n-]c(cc5nc(cc1n2)C(C)=C5C=C)c(C)c4CCC(=O)O)c(CCC(=O)O)c3C.[Cl-].[Fe+3] [Hemin (DMSO)]

Results (additive concentration 0.00005%): Improvement in % Hb
Results (additive concentration 0.00005%, pH 6.5): Improvement in % Hb
Results (additive concentration 0.00009%): Improvement in % Hb
Results (additive concentration 0.00009%, pH 6.5): Improvement in % Hb
Results (additive concentration 0.0003%): Improvement in % Hb
Results (additive concentration 0.003%): Improvement in % Hb
Results (additive concentration 0.003%, pH 6.5): Improvement in % Hb
Results (additive concentration […]): Improvement in % Hb
Results (additive concentration […], pH 6.5): Improvement in % Hb
Structure (SMILES): C=CC1=C(C)c2cc3[n-]c(cc4nc(cc5[n-]c(cc1n2)c(C)c5C=C)C(C)=C4CCC(=O)O)c(CCC(=O)O)c3C.[Cl-].[Fe+3] [Hemin (H2O:NaOH)]

Results (additive concentration 14 mM): No Improvement
Results (additive concentration 140 mM): No Improvement
Results (additive concentration 500 mM): No Improvement
Structure (SMILES): C1N2CN3CN1CN(C2)C3 [Hexamethylenetetramine]

Results (additive concentration 0.0028 mM): No Improvement
Results (additive concentration 0.0228 mM): No Improvement
Results (additive concentration 0.228 mM): No Improvement
Structure (SMILES): N[C@@H](Cc1c[nH]cn1)C(=O)O [Histidine]

Structure (SMILES): NO [Hydroxylamine]
Results (additive concentration 25 uM): No Improvement
Results (additive concentration 0.5 mM): No Improvement

Results (additive concentration 25 uM): No Improvement
Results (additive concentration 0.5 mM): No Improvement
Structure (SMILES): c1c[nH]cn1 [Imidazole]

Results (additive concentration 10 mM): No Improvement
Structure (SMILES): O=C(O)CC(NC(CC(=O)O)C(=O)O)C(=O)O (stereo not shown) [Iminodisuccinic acid]

Results (additive concentration 0.0687 mM): No Improvement
Results (additive concentration 0.687 mM): No Improvement
Results (additive concentration 6.87 mM): No Improvement
Structure (SMILES): NCCCC[C@H](N)C(=O)O [Lysine]

Structure (SMILES): O=S(=O)([O-])CS(=O)(=O)[O-].[K+].[K+] [Methanedisulfonic acid dipotassium salt]
Results (additive concentration 10.69 mM): No Improvement

Results (additive concentration 0.4 mM): No Improvement
Results (additive concentration 4 mM): No Improvement
Results (additive concentration 40 mM): No Improvement
Structure (SMILES): O=S(=O)([O-])CCCS(=O)(=O)[O-].[Na+].[Na+] [Propanedisulfonic acid disodium salt]

Results (Additive Concentration 0.10%): No Improvement
Results (Additive Concentration 0.50%): No Improvement
Results (Additive Concentration 1%): No Improvement
Structure (SMILES): CC(O)CO (stereo not shown) [Propylene Glycol]

Results (additive concentration 1.25 uM): Improvement in % Hb
Results (additive concentration 5 uM): Improvement in % Hb
Structure (SMILES): C=CC1=C(C)c2cc3[n-]c(cc4nc(cc5[n-]c(cc1n2)c(C)c5C=C)C(C)=C4CCC(=O)O)c(CCC(=O)O)c3C.[Cl-].[Cr+3] [Protoporphyrin IX Chromium (Vendor 1)]

Results (additive concentration 1.25 uM): Improvement in % Hb
Results (additive concentration 5 uM): Improvement in % Hb
Structure (SMILES): C=CC1=C(C)c2cc3[n-]c(cc4nc(cc5[n-]c(cc1n2)c(C)c5C=C)C(C)=C4CCC(=O)O)c(CCC(=O)O)c3C.[Cl-].[Cr+3] [Protoporphyrin IX Chromium (Vendor 2)]

Results (additive concentration 1.25 uM): Improvement in % Hb
Results (additive concentration 5 uM): Improvement in % Hb
Structure (SMILES): C=CC1=C(C)c2cc3[n-]c(cc4nc(cc5[n-]c(cc1n2)c(C)c5C=C)C(C)=C4CCC(=O)O)c(CCC(=O)O)c3C.[Cl-].[Co+3] [Protoporphyrin IX Cobalt (Vendor 1)]

Results (additive concentration 1.25 uM): Improvement in % Hb
Results (additive concentration 5 uM): Improvement in % Hb
Structure (SMILES): C=CC1=C(C)c2cc3[n-]c(cc4nc(cc5[n-]c(cc1n2)c(C)c5C=C)C(C)=C4CCC(=O)O)c(CCC(=O)O)c3C.[Cl-].[Co+3] [Protoporphyrin IX Cobalt (Vendor 2)]

Results (additive concentration 1.25 uM): Improvement in % Hb
Results (additive concentration 5 uM): Improvement in % Hb
Structure (SMILES): C=CC1=C(C)c2cc3[n-]c(cc4nc(cc5[n-]c(cc1n2)c(C)c5C=C)C(C)=C4CCC(=O)O)c(CCC(=O)O)c3C.[Cl-].[Co+3] [Protoporphyrin IX Cobalt (Vendor 3)]

Results (additive concentration 1.25 uM): No Improvement
Results (additive concentration 5 uM): No Improvement
Structure (SMILES): C=CC1=C(C)c2cc3[n-]c(cc4nc(cc5[n-]c(cc1n2)c(C)c5C=C)C(C)=C4CCC(=O)O)c(CCC(=O)O)c3C.[Cl-].[Ga+3] [Protoporphyrin IX Gallium]

Results (additive concentration 5 uM): No Improvement
Results (additive concentration 50 uM): No Improvement
Results (additive concentration 5 mM): No Improvement
Results (additive concentration 24 mM): No improvement
Structure (SMILES): OC[C@H]1O[C@H](OC[C@H]2O[C@H](O[C@]3(CO)O[C@H](CO)[C@@H](O)[C@@H]3O)[C@H](O)[C@@H](O)[C@@H]2O)[C@H](O)[C@@H](O)[C@H]1O [Raffinose]

Results (additive concentration 85 uM): No Improvement
Results (additive concentration 850 uM): No Improvement
Structure (SMILES): [F-].[Na+] [Sodium Fluoride]

Structure (SMILES): O=S([O-])([O-])=S.[Na+].[Na+] [Sodium Thiosulfate]
Results: No Improvement

Structure (SMILES): O=C(O)CCP(CCC(=O)O)CCC(=O)O [TCEP]
Results (additive concentration 0.005 mM): No Improvement
Results (additive concentration 0.01 mM): No Improvement
Results (additive concentration 0.1 mM): No Improvement
Results (additive concentration 250 uM): No Improvement
Results (additive concentration 500 uM): No Improvement
Results (additive concentration 750 uM): No Improvement
Results (additive concentration 1 mM): No Improvement

— US20240402196A1 (Exact Sciences Corporation, priority 2018, published 2024)
